Experiments:
[1] = tested on: hippocampal neurons; assay: Test Example 1: ability to promote axonal outgrowth; type: cell-based, Wistar rats; settings: Hippocampal neuron, 216 h; Compound Conc. = 3 μM; % of control; rat hippocampal neurons, day 9; read-out: Promotion of axonal outgrowth (%)
Method: According to the method of M. P. Mattson [M. P. Mattson, Brain Res. Rev., 13, 179, (1988)], the hippocampal region was isolated from 18-day embryos of female Wistar rats and the neurons were dispersed using the papain dissociation system. Hippocampal neuron were suspended in 5% Nu-serum+B27 supplement+Neurobasal medium at 5×10^4 cells/well/2 mL. 2 mL of the cell suspension were inoculated on a poly-D-lysine-coated 36φ dish and the neuron were incubated at 37° C. in a 5% CO2 incubator.
On day 3 of the incubation period, 1 mL of the culture medium was replaced with 1 mL of 5% Nu-serum+B27 supplement+Neurobasal medium containing 2 mM AraC. Each test compound was added to the culture on day 3 and day 7 of the incubation period. On day 9, cells were fixed in a 4% paraformaldehyde solution. The nerve axons of the fixed cells were stained with the Rabbit anti-growth-associated protein-43 polyclonal antibody and the stained cells were quantified using Kurabo neuron outgrowth-quantication software.
The ability (%) of each test compound to promote axonal outgrowth was calculated from the following equation: The ability to promote axonal outgrowth (%)=[(measurement with a compound of interest)/(measurement of control)]×100
Example Compounds shown in Table 25 were used as test compounds and were each added at concentrations of 3 μM and 0.3 μM.
Since bFGF gives a measurement of about 120 in this test, 120 is used as the threshold to determine whether a given compound has the ability to promote axonal outgrowth

[2] = tested on: mixture of human vascular endothelial cells and fibroblasts; assay: Test Example 2: ability to promote angiogenesis (angiogenesis test kit KZ-1000); type: cell-based; settings: Homo sapiens, 216 h, lumen length, % of control, day 9, read-out: Promotion of angiogenesis (%); for activity at 0.3 µM: Compound Conc. = 0.3 μM
Method: Using an angiogenesis test kit containing a mixture of human vascular endothelial cells and fibroblasts [KZ-1000; Kurabo], the ability of test compounds to promote angiogenesis was evaluated. Each test compound was added on days 1, 4, and 7 of the incubation period. On day 9, cells were immunostained with CD31 and photographed. Control cells were cultured under the same conditions, only without the addition of a test compound, and photographed.
The lumen length of the blood vessel was quantified from the obtained images using an angiogenesis-quantification software. The ability (%) of each test compound to promote angiogenesis was calculated from the following equation: The ability to promote angiogenesis (%)=[(measurement with a compound of interest)/(measurement of control)]×100
Example Compounds shown in Table 26 were used as test compounds.
Since bFGF gives a measurement of about 120 in this test, 120 is used as the threshold to determine whether a given compound has the ability to promote angiogenesis.

[3] = tested on: microsphere (micro-embolism) model; assay: Test Example 6: rat microsphere (micro-embolism) model; type: in vivo, Crl:CD(SD) rats; settings: rats, oral 1.0 mg/kg once daily for 10 days (Compound 65 also 0.1 mg/kg); 2 weeks after surgery
From the text: According to the method of Ichiro Date et al. [Journal of Neuroscience Research 78; 442-453 (2004)], 8-week-old male Crl:CD(SD) rats were used. Animals were anesthetized with halothane and midline incision was made. Right carotid artery was separated and a thread was looped around the common carotid artery and external carotid artery. The pterygopalatine artery was temporarily clipped with an aneurysm clip. The blood flow through the common carotid artery and external carotid artery was temporarily interrupted and 0.1 mL of a microsphere suspension composed of microspheres dispersed in a 30% sucrose solution (1800 microspheres/0.1 mL) was injected into the common carotid artery. After injection of the suspension, the puncture of the injection needle was filled with instant glue while the blood flow was interrupted. The blood flow was then restored and the surgical wound was sutured. Neurological symptoms were observed the day following the surgery. The animals were assigned to each treated group at random with respect to the measurements of neurological symptoms, the decrease in body weight from the previous day, and the body weight on that day.
The test compounds used were Example Compound 65, 108, 130, 135 and 137, each of which was administered at a dose of 1.0 mg/kg. Example Compound 65 was administered also at a dose of 0.1 mg/kg. Each compound was orally administered once daily for 10 days starting from the following day of the surgery. Coordinated motor functions were measured 5 times on an accelerated rota-rod (4 to 40 rpm/5 min) 2 weeks after the surgery.
Specifically, FIGS. 11 to 15 show the effect of different compounds 2 weeks after the microsphere injection (rota-rod test standard parameter). The figures show the results of rota-rod tests 2 weeks after the ischemic event in which each compound was orally administered at 1.0 mg/kg once daily for 10 days (Example Compound 65 was administered at 0.1 mg/kg or 1.0 mg/kg). What is shown in the figures is the total time of the 5 measurements on rota-rod as a standard parameter.
***: p<0.0001, Dunnett's multiple range test vs. Vehicle.

[4] = tested on: spinal cord neurons; assay: Test Example 3: ability to promote the neurite outgrowth of spinal cord neurons; type: cell-based, Wistar rats; settings: Compound Conc. = 0.1 μM; % of control, day 3
Method: According to the method of Martin G. Hanson Jr. [J. Neurosci., 1998 Sep. 15; 18(18): 7361-71], the spinal cord region was isolated from 15-day embryos of female Wistar rats and the cells were dispersed using the papain dissociation system. Neurons were collected using 6.8% Metrizamide density gradient and were suspended in 2% FBS+Leibovitz's −15 medium so that the density of the cells will be 2×10^3 cells/well/200 μL. 200 μL of the cell suspension was inoculated on a poly-D-lysine/laminin-coated 96 well plate and the plate was incubated in an incubator at 37° C. Test compounds were added 1 hour after seeding of cells.
On day 3 of the incubation period, neurons were stained with Calcein-AM and the lengths of neurites were determined using IN Cell Analyzer (GE Healthcare Bioscience).
The ability (%) of each test compound to promote neurite outgrowth was calculated from the following equation: The ability to promote neurite outgrowth (%)=[(measurement with a compound of interest)/(measurement of control)]×100
Example Compounds 65, 71, 74, 92, 130 and 135 were used as test compounds and were each added at a concentration of 0.1 μM.
The results are shown in Table 27. bFGF gives a measurement of about 130 in this test.

[5] = tested on: critical limb ischemia model (left femoral artery excised); assay: Test Example 4: lower limb ischemia (critical limb ischemia) model in mice; type: in vivo, Balb/c mice; settings: oral once daily 0.1 or 1.0 mg/kg for 10 days from femoral artery excision, vs Vehicle
Method: According to the method of Ichiro Masaki [Circ Res. 90; 966-973 (2002)], the left femoral artery of Balb/c mice was excised to establish a model of critical limb ischemia (n=29 to 30).
Test compounds used were Example Compounds 65, 92, 114, 130, 135 and 136, each of which was orally administered once daily at a dose of 0.1 mg/kg or 1.0 mg/kg for 10 days starting from the day of femoral artery excision.
The results are shown in FIGS. 1 to 6 in which FIGS. 1, 2, 3, 4, 5 and 6 show the results of Example Compounds 65, 92, 114, 130, 135 and 136, respectively.
In the figures, a thick solid line indicates a Vehicle group, a thin dotted line indicates a group administered 0.1 mg/kg/day of each compound, and a thin solid line indicates a group administered 1.0 mg/kg/day of each compound.
*: P<0.05, **: P<0.01, ***: P<0.001 vs Vehicle by Wilcoxon's test.

[6] = target: T1, chemokine receptor CCR3 (Homo sapiens, UniProt P51677); assay: Affinity to chemokine receptor CCR3; type: binding; settings: at a concentration of 10 μM
T1 sequence (P51677 1-355): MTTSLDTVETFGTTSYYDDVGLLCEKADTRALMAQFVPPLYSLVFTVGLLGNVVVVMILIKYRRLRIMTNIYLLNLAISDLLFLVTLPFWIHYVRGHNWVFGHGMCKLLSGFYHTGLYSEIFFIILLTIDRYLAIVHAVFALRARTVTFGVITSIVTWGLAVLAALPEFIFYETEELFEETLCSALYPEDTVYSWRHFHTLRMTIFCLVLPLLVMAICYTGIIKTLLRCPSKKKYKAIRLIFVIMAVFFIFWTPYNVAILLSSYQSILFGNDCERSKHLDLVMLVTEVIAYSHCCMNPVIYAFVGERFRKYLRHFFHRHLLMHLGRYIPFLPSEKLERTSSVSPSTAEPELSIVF
From the text: Although the compounds of the present invention are novel compounds, compounds having a partly similar skeleton are described, for example, in Published Japanese Translation of PCT International Application No. 2003-507456, WO 01/79170 and WO 00/23076.

Cc1cnc(N)nc1NCC(=O)N(C)C1CCN(CC2CC2)CC1 [Compound 108, 2-(2-amino-5-methylpyrimidine-4-ylamino)-N-(1-(cyclopropylmethyl)piperidine-4-yl)-N-methylacetamide]
activity at 3 µM [1]: 122% | activity at 0.3 µM [2]: 114% | coordinated motor functions, total time of 5 measurements on rota-rod [3]: highly effective in ameliorating ischemic cerebral infarction

CNc1nccnc1OCC(=O)N(C)C1CCN(Cc2ccccc2)CC1.Cl [Compound 130, N-(1-benzylpiperidine-4-yl)-N-methyl-2-(3-(methylamino)pyrazine-2-yloxy)acetamide hydrochloride]
Promotion of spinal cord neurite outgrowth (%) [4]: 128% | activity at 3 µM [1]: 143% | survival rate of lower limb [5]: increased survival rate | activity at 0.3 µM [2]: 118% | affinity to chemokine receptor CCR3 [6]: 3.5% | coordinated motor functions, total time of 5 measurements on rota-rod [3]: highly effective in ameliorating ischemic cerebral infarction

CN(C(=O)COc1ccc(Cl)nn1)C1CCN(C(=O)C2CC2)CC1 [Compound 135, 2-(6-chloropyridazine-3-yloxy)-N-(1-(cyclopropanecarbonyl)piperidine-4-yl)-N-methylacetamide]
Promotion of spinal cord neurite outgrowth (%) [4]: 121% | activity at 3 µM [1]: 131% | survival rate of lower limb [5]: increased survival rate | activity at 3 µM ([2]; Compound Conc. = 3 μM): 140% | affinity to chemokine receptor CCR3 [6]: 22% | coordinated motor functions, total time of 5 measurements on rota-rod [3]: highly effective in ameliorating ischemic cerebral infarction

CN(C(=O)COc1ccc(Cl)nn1)C1CCN(Cc2ccccc2)CC1 [Compound 137, N-(1-benzylpiperidine-4-yl)-2-(6-chloropyridazine-3-yloxy)-N-methylacetamide]
coordinated motor functions, total time of 5 measurements on rota-rod [3]: highly effective in ameliorating ischemic cerebral infarction
